Measured values as given in paper PMC9487510, “A Novel Oral GyrB/ParE Dual Binding Inhibitor Effective against Multidrug-Resistant Neisseria gonorrhoeae and Other High-Threat Pathogens” (Antimicrobial Agents and Chemotherapy, 2022).
Converted amounts (≈) assume the structure as drawn.

System: N. gonorrhoeae clinical isolates
Assay: MIC, agar dilution (CLSI)
Type: cell-based, Neisseria gonorrhoeae

## CN(C)[C@@H]1C(O)=C(C(N)=O)C(=O)[C@@]2(O)C(O)=C3C(=O)c4c(O)cccc4[C@@](C)(O)[C@H]3C[C@@H]12 [Tet, tetracycline]
96 clinical isolates
  MIC range: 0.063 to 16 µg/mL
Neisseria gonorrhoeae
  MIC50: 1 µg/mL (≈ 2.25 µM)
  MIC90: 1 µg/mL (≈ 2.25 µM)
Neisseria gonorrhoeae, strain CDC1 (GCREF2012 016)
  MIC: 2 µg/mL (≈ 4.5 µM)
Neisseria gonorrhoeae, strain CDC2 (GCREF2012 045)
  MIC: 1 µg/mL (≈ 2.25 µM)
Neisseria gonorrhoeae, strain CDC3 (GCREF2013 013)
  MIC: 1 µg/mL (≈ 2.25 µM)
Neisseria gonorrhoeae, strain CDC4 (GCREF2013 030)
  MIC: 0.5 µg/mL (≈ 1.13 µM)
Neisseria gonorrhoeae, strain CDC5 (GCREF2012 001)
  MIC: 1 µg/mL (≈ 2.25 µM)
Neisseria gonorrhoeae, strain CDC6 (GCREF2012 002)
  MIC: 1 µg/mL (≈ 2.25 µM)
Neisseria gonorrhoeae, strain CDC8 (GCREF2012 004)
  MIC: 1 µg/mL (≈ 2.25 µM)
Neisseria gonorrhoeae, strain CDC9 (GCREF2012 005)
  MIC: 1 µg/mL (≈ 2.25 µM)
Neisseria gonorrhoeae, strain CDC10 (GCREF2012 006)
  MIC: 1 µg/mL (≈ 2.25 µM)
Neisseria gonorrhoeae, strain CDC11 (GCREF2012 007)
  MIC: 1 µg/mL (≈ 2.25 µM)
Neisseria gonorrhoeae, strain CDC12 (GCREF2012 008)
  MIC: 1 µg/mL (≈ 2.25 µM)
Neisseria gonorrhoeae, strain CDC13 (GCREF2012 009)
  MIC: 1 µg/mL (≈ 2.25 µM)
Neisseria gonorrhoeae, strain CDC14 (GCREF2012 010)
  MIC: 1 µg/mL (≈ 2.25 µM)
Neisseria gonorrhoeae, strain CDC15 (GCREF2012 011)
  MIC: 0.5 µg/mL (≈ 1.13 µM)
Neisseria gonorrhoeae, strain CDC16 (GCREF2012 012)
  MIC: 1 µg/mL (≈ 2.25 µM)
Neisseria gonorrhoeae, strain CDC18 (GCREF2012 014)
  MIC: 1 µg/mL (≈ 2.25 µM)
Neisseria gonorrhoeae, strain CDC19 (GCREF2012 015)
  MIC: 0.5 µg/mL (≈ 1.13 µM)
Neisseria gonorrhoeae, strain CDC20 (GCREF2012 017)
  MIC: 1 µg/mL (≈ 2.25 µM)
Neisseria gonorrhoeae, strain CDC21 (GCREF2012 018)
  MIC: 1 µg/mL (≈ 2.25 µM)
Neisseria gonorrhoeae, strain CDC22 (GCREF2012 019)
  MIC: 1 µg/mL (≈ 2.25 µM)
Neisseria gonorrhoeae, strain CDC23 (GCREF2012 020)
  MIC: 1 µg/mL (≈ 2.25 µM)
Neisseria gonorrhoeae, strain CDC24 (GCREF2012 021)
  MIC: 1 µg/mL (≈ 2.25 µM)
Neisseria gonorrhoeae, strain CDC25 (GCREF2012 022)
  MIC: 1 µg/mL (≈ 2.25 µM)
Neisseria gonorrhoeae, strain CDC26 (GCREF2012 023)
  MIC: 0.5 µg/mL (≈ 1.13 µM)
Neisseria gonorrhoeae, strain CDC27 (GCREF2012 024)
  MIC: 1 µg/mL (≈ 2.25 µM)
Neisseria gonorrhoeae, strain CDC28 (GCREF2012 025)
  MIC: 1 µg/mL (≈ 2.25 µM)
Neisseria gonorrhoeae, strain CDC29 (GCREF2012 026)
  MIC: 1 µg/mL (≈ 2.25 µM)
Neisseria gonorrhoeae, strain CDC30 (GCREF2012 027)
  MIC: 1 µg/mL (≈ 2.25 µM)
Neisseria gonorrhoeae, strain CDC31 (GCREF2012 028)
  MIC: 2 µg/mL (≈ 4.5 µM)
Neisseria gonorrhoeae, strain CDC32 (GCREF2012 029)
  MIC: 0.5 µg/mL (≈ 1.13 µM)
Neisseria gonorrhoeae, strain CDC33 (GCREF2012 030)
  MIC: 0.5 µg/mL (≈ 1.13 µM)
Neisseria gonorrhoeae, strain CDC34 (GCREF2012 031)
  MIC: 1 µg/mL (≈ 2.25 µM)
Neisseria gonorrhoeae, strain CDC35 (GCREF2012 032)
  MIC: 2 µg/mL (≈ 4.5 µM)
Neisseria gonorrhoeae, strain CDC36 (GCREF2012 033)
  MIC: 1 µg/mL (≈ 2.25 µM)
Neisseria gonorrhoeae, strain CDC37 (GCREF2012 034)
  MIC: 1 µg/mL (≈ 2.25 µM)
Neisseria gonorrhoeae, strain CDC38 (GCREF2012 035)
  MIC: 1 µg/mL (≈ 2.25 µM)
Neisseria gonorrhoeae, strain CDC39 (GCREF2012 036)
  MIC: 1 µg/mL (≈ 2.25 µM)
Neisseria gonorrhoeae, strain CDC40 (GCREF2012 037)
  MIC: 1 µg/mL (≈ 2.25 µM)
Neisseria gonorrhoeae, strain CDC41 (GCREF2012 038)
  MIC: 1 µg/mL (≈ 2.25 µM)
Neisseria gonorrhoeae, strain CDC42 (GCREF2012 039)
  MIC: 2 µg/mL (≈ 4.5 µM)
Neisseria gonorrhoeae, strain CDC43 (GCREF2012 040)
  MIC: 2 µg/mL (≈ 4.5 µM)
Neisseria gonorrhoeae, strain CDC45 (GCREF2012 042)
  MIC: 2 µg/mL (≈ 4.5 µM)
Neisseria gonorrhoeae, strain CDC46 (GCREF2012 043)
  MIC: 1 µg/mL (≈ 2.25 µM)
Neisseria gonorrhoeae, strain CDC47 (GCREF2012 044)
  MIC: 1 µg/mL (≈ 2.25 µM)
Neisseria gonorrhoeae, strain CDC48 (GCREF2012 046)
  MIC: 1 µg/mL (≈ 2.25 µM)
Neisseria gonorrhoeae, strain CDC49 (GCREF2012 047)
  MIC: 1 µg/mL (≈ 2.25 µM)
Neisseria gonorrhoeae, strain CDC50 (GCREF2012 048)
  MIC: 1 µg/mL (≈ 2.25 µM)
Neisseria gonorrhoeae, strain CDC51 (GCREF2012 049)
  MIC: 1 µg/mL (≈ 2.25 µM)
Neisseria gonorrhoeae, strain CDC52 (GCREF2012 050)
  MIC: 1 µg/mL (≈ 2.25 µM)
Neisseria gonorrhoeae, strain CDC53 (GCREF2012 051)
  MIC: 1 µg/mL (≈ 2.25 µM)
Neisseria gonorrhoeae, strain CDC54 (GCREF2012 052)
  MIC: 1 µg/mL (≈ 2.25 µM)
Neisseria gonorrhoeae, strain CDC55 (GCREF2013 001)
  MIC: 1 µg/mL (≈ 2.25 µM)
Neisseria gonorrhoeae, strain CDC56 (GCREF2013 002)
  MIC: 1 µg/mL (≈ 2.25 µM)
Neisseria gonorrhoeae, strain CDC57 (GCREF2013 003)
  MIC: 0.5 µg/mL (≈ 1.13 µM)
Neisseria gonorrhoeae, strain CDC58 (GCREF2013 004)
  MIC: 1 µg/mL (≈ 2.25 µM)
Neisseria gonorrhoeae, strain CDC59 (GCREF2013 044)
  MIC: 16 µg/mL (≈ 36 µM)
Neisseria gonorrhoeae, strain CDC60 (GCREF2013 005)
  MIC: 1 µg/mL (≈ 2.25 µM)
Neisseria gonorrhoeae, strain CDC61 (GCREF2013 006)
  MIC: 1 µg/mL (≈ 2.25 µM)
Neisseria gonorrhoeae, strain CDC62 (GCREF2013 007)
  MIC: 0.5 µg/mL (≈ 1.13 µM)
Neisseria gonorrhoeae, strain CDC63 (GCREF2013 008)
  MIC: 0.063 µg/mL (≈ 0.142 µM)
Neisseria gonorrhoeae, strain CDC64 (GCREF2013 009)
  MIC: 1 µg/mL (≈ 2.25 µM)
Neisseria gonorrhoeae, strain CDC65 (GCREF2013 010)
  MIC: 0.5 µg/mL (≈ 1.13 µM)
Neisseria gonorrhoeae, strain CDC66 (GCREF2013 011)
  MIC: 0.5 µg/mL (≈ 1.13 µM)
Neisseria gonorrhoeae, strain CDC67 (GCREF2013 014)
  MIC: 1 µg/mL (≈ 2.25 µM)
Neisseria gonorrhoeae, strain CDC68 (GCREF2013 016)
  MIC: 1 µg/mL (≈ 2.25 µM)
Neisseria gonorrhoeae, strain CDC69 (GCREF2013 017)
  MIC: 1 µg/mL (≈ 2.25 µM)
Neisseria gonorrhoeae, strain CDC70 (GCREF2013 018)
  MIC: 1 µg/mL (≈ 2.25 µM)
Neisseria gonorrhoeae, strain CDC71 (GCREF2013 019)
  MIC: 1 µg/mL (≈ 2.25 µM)
Neisseria gonorrhoeae, strain CDC72 (GCREF2013 020)
  MIC: 1 µg/mL (≈ 2.25 µM)
Neisseria gonorrhoeae, strain CDC73 (GCREF2013 021)
  MIC: 1 µg/mL (≈ 2.25 µM)
Neisseria gonorrhoeae, strain CDC74 (GCREF2013 022)
  MIC: 1 µg/mL (≈ 2.25 µM)
Neisseria gonorrhoeae, strain CDC75 (GCREF2013 023)
  MIC: 1 µg/mL (≈ 2.25 µM)
Neisseria gonorrhoeae, strain CDC76 (GCREF2013 024)
  MIC: 1 µg/mL (≈ 2.25 µM)
Neisseria gonorrhoeae, strain CDC77 (GCREF2013 025)
  MIC: 1 µg/mL (≈ 2.25 µM)
Neisseria gonorrhoeae, strain CDC78 (GCREF2013 026)
  MIC: 1 µg/mL (≈ 2.25 µM)
Neisseria gonorrhoeae, strain CDC79 (GCREF2013 027)
  MIC: 1 µg/mL (≈ 2.25 µM)
Neisseria gonorrhoeae, strain CDC80 (GCREF2013 028)
  MIC: 1 µg/mL (≈ 2.25 µM)
Neisseria gonorrhoeae, strain CDC81 (GCREF2013 029)
  MIC: 1 µg/mL (≈ 2.25 µM)
Neisseria gonorrhoeae, strain CDC82 (GCREF2013 031)
  MIC: 0.5 µg/mL (≈ 1.13 µM)
Neisseria gonorrhoeae, strain CDC83 (GCREF2013 032)
  MIC: 0.5 µg/mL (≈ 1.13 µM)
Neisseria gonorrhoeae, strain CDC84 (GCREF2013 033)
  MIC: 0.5 µg/mL (≈ 1.13 µM)
Neisseria gonorrhoeae, strain CDC86 (GCREF2013 035)
  MIC: 0.25 µg/mL (≈ 0.563 µM)
Neisseria gonorrhoeae, strain CDC87 (GCREF2013 036)
  MIC: 1 µg/mL (≈ 2.25 µM)
Neisseria gonorrhoeae, strain CDC88 (GCREF2013 037)
  MIC: 0.5 µg/mL (≈ 1.13 µM)
Neisseria gonorrhoeae, strain CDC89 (GCREF2013 038)
  MIC: 1 µg/mL (≈ 2.25 µM)
Neisseria gonorrhoeae, strain CDC90 (GCREF2013 039)
  MIC: 1 µg/mL (≈ 2.25 µM)
Neisseria gonorrhoeae, strain CDC91 (GCREF2013 040)
  MIC: 1 µg/mL (≈ 2.25 µM)
Neisseria gonorrhoeae, strain CDC92 (GCREF2013 041)
  MIC: 1 µg/mL (≈ 2.25 µM)
Neisseria gonorrhoeae, strain CDC93 (GCREF2013 042)
  MIC: 1 µg/mL (≈ 2.25 µM)
Neisseria gonorrhoeae, strain CDC94 (GCREF2013 043)
  MIC: 0.5 µg/mL (≈ 1.13 µM)
Neisseria gonorrhoeae, strain CDC95 (GCREF2013 045)
  MIC: 1 µg/mL (≈ 2.25 µM)
Neisseria gonorrhoeae, strain CDC96 (GCREF2013 046)
  MIC: 0.5 µg/mL (≈ 1.13 µM)
Neisseria gonorrhoeae, strain CDC97 (GCREF2013 047)
  MIC: 1 µg/mL (≈ 2.25 µM)
Neisseria gonorrhoeae, strain CDC98 (GCREF2013 048)
  MIC: 0.5 µg/mL (≈ 1.13 µM)
Neisseria gonorrhoeae, strain CDC99 (GCREF2013 012)
  MIC: 0.5 µg/mL (≈ 1.13 µM)
Neisseria gonorrhoeae, strain CDC100 (GCREF2013 015)
  MIC: 1 µg/mL (≈ 2.25 µM)
